In patent US12084708B1, “Acoustic wave resonator with active shunt capacitance cancellation and systems thereof” (National Technology & Engineering Solutions of Sandia, LLC, priority 2019, dated 2024):

What was measured:
E. coli MG1655 = test: Dose response growth curve analysis (OD600), MG1655; assay type: cell-based
Protocol: To perform an initial test of the sensors' ability to detect response of bacteria to antibiotics, common molecular cloning strains and one pseudo-wild-type strain of E. coli were selected. TOP10, DH5α, and MG1655 strains are sensitive to kanamycin, ampicillin, or chloramphenicol in the absence of a plasmid conferring resistance. Dose response growth curve analysis was performed to determine appropriate concentrations of antibiotic to use with each strain and plasmid combination.

E. coli = settings: final concentration 1M; positive control for cell death
Protocol: For experiments in which bacteria were applied to the resonator devices, cultures were harvested at late log to early stationary phase. Cells were centrifuged at 5000× g for 5 minutes then resuspended in either fresh LB medium or phosphate-buffered saline. For antibiotic treatment, 200 µg/ml kanamycin was added to cells in the sensor devices.

## NC[C@H]1O[C@H](O[C@H]2[C@H](O)[C@@H](O[C@H]3O[C@H](CO)[C@@H](O)[C@H](N)[C@H]3O)[C@H](N)C[C@@H]2N)[C@H](O)[C@@H](O)[C@@H]1O [kanamycin]
E. coli MG1655; E. coli MG1655 without plasmid, full 24 hr culture time, OD600, FIG. 17
  minimum concentration that completely blocked growth: 25 µg/mL

## CC1(C)S[C@@H]2[C@H](NC(=O)[C@H](N)c3ccccc3)C(=O)N2[C@H]1C(=O)O [ampicillin]
E. coli MG1655; E. coli MG1655 cultures, varying doses, OD600, FIG. 16B
  concentration at which growth inhibition was observed: more than 1.56 μg/mL

## [Na+].[OH-] [sodium hydroxide]
E. coli
  lysis of bacteria: Complete lysis
